Values after ≈ are worked out from the molar mass of the structure shown. Like-named read-outs stand apart in the source and are kept apart here. Where a SMILES comes first, the peptide text is derived from it. [ ]: non-standard residue; d: D form. ξ: configuration not given here. Oic = O=C(O)[C@@H]1C[C@@H]2CCCC[C@@H]2N1; Tic = O=C(O)[C@@H]1Cc2ccccc2CN1; ξTic = O=C(O)C1Cc2ccccc2CN1; ξOic = O=C(O)C1CC2CCCCC2N1; GABA = NCCCC(=O)O
What was measured:
[1] = tested on: Salmonella typhimurium (ATCC 13311); details: for MIC Salmonella typhimurium: ATCC 13311; for p(MIC) Salmonella typhimurium: -log(MIC)
[2] = tested on: Mycobacterium ranae (ATCC 110)
[3] = tested on: Staphylococcus aureus Methicillin/Gentamicin/Tetracycline Resistant (ATCC 33592); details: for p(MIC) Staphylococcus aureus ME/GM/TC resistant: -log(MIC); for Minimum Inhibitory Concentration Staphylococcus aureus ME/GM/TC resistant: in vitro MIC, tested at 100, 30, 10, 3, 1, 0.3 and 0.1 μM in 1% DMSO; for Actual Bioactivity: p(MIC) used in Staphylococcus aureus QSAR model
[4] = Metabolic stability, human liver microsomes; details: for % remaining at time T, Human Liver: 0.5 mg/mL microsomes
[5] = Metabolic stability, dog liver microsomes
[6] = Metabolic stability, monkey liver microsomes
[7] = Metabolic stability, rat liver microsomes
red blood cells [8] = assay: Hemolytic studies
[9] = Metabolic stability, mouse liver microsomes
[10] = tested on: Bacillus subtillis (ATCC 43223); details: for MIC Bacillus Subtillis: ATCC 43223
[11] = tested on: Plasmodium falciparum D6 (CDC Sierra Leone, mefloquine resistant)
red blood cells [12] = details: 100 μM
[13] = tested on: Plasmodium falciparum W2 (CDC Indochina III chloroquine, quinine, pyrimethamine and sulfadoxine-resistant)
[14] = liver microsomes, 1 μM, T = 60 min
[15] = Minimal Inhibitory Concentration, tested at 100-0.1 in 1% DMSO

CC(=O)NCCCC(=O)N[C@@H](Cc1ccccc1)C(=O)N1Cc2ccccc2CC1C(=O)N1C(C(=O)NCCCC(=O)N[C@@H](CCCCN)C(=O)N2Cc3ccccc3CC2C(=O)N2C(C(=O)NCCCC(=O)N[C@@H](Cc3ccccc3)C(=O)N3Cc4ccccc4CC3C(=O)N3C(C(=O)NCCCC(=O)N[C@@H](CCCCN)C(=O)N4Cc5ccccc5CC4C(=O)N[C@@H](CCCCN)C(=O)N[C@@H](CCCCN)C(=O)N[C@@H](CCCCN)C(=O)N[C@@H](CCCCN)C(N)=O)CC4CCCCC43)CC3CCCCC32)CC2CCCCC21 (stereo partly drawn) [FKAB-1Gd, Ac-Gaba-F-Tic-Oic-Gaba-K-Tic-Oic-Gaba-F-Tic-Oic-Gaba-K-Tic-KKKK-CONH2] (Ac-[GABA]F[ξTic][ξOic][GABA]K[ξTic][ξOic][GABA]F[ξTic][ξOic][GABA]K[ξTic]KKKK-NH2)
MIC Salmonella typhimurium [1]: 0.01 mM (≈ 0.0255 mg/mL) | MIC Mycobacterium ranae ([2]; ATCC 110): 0.01 mM (≈ 0.0255 mg/mL) | Minimum Inhibitory Concentration Mycobacterium ranae ([2]; ATCC 110): 10 µM | MIC Staphylococcus aureus ME/GM/TC resistant ([3]; ATCC 33592): 0.1 mM (≈ 0.255 mg/mL) | remaining at 0.25 h, 1 μM ([4]; human, microsomes, pH 7.4): 106% | metabolic stability T = 60 min human [4, 14]: high | % remaining at time T, Human Liver ([4]; second human column (T = 30 min, head not given), 1 μM): 94% | % remaining at time T, Human Liver ([4]; third human column (T = 60 min, head not given), 1 μM): 114% | % remaining, Dog Liver T = 15 ([5]; T = 15 min, 1 μM, 0.5 mg/mL microsomes): 35% | remaining at 0.5 h, 1 μM ([5]; dog, microsomes, pH 7.4): 34% | remaining at 1 h, 1 μM ([5]; dog, microsomes, pH 7.4): 55% | metabolic stability T = 60 min dog [5, 14]: High | metabolic stability T = 60 min monkey [6, 14]: high | remaining at 0.25 h, 1 μM ([6]; monkey, microsomes, pH 7.4): 16% | remaining at 0.5 h, 1 μM ([6]; monkey, microsomes, pH 7.4): 25% | remaining at 1 h, 1 μM ([6]; monkey, microsomes, pH 7.4): 76% | metabolic stability T = 60 min rat [7, 14]: high | remaining at 0.25 h, 1 μM ([7]; rat, microsomes, pH 7.4): 67% | remaining at 0.5 h, 1 μM ([7]; rat, microsomes, pH 7.4): 78% | remaining at 1 h, 1 μM ([7]; rat, microsomes, pH 7.4): 83% | % hemolysis 100/25 μM (first value) (red blood cells [8]; 100 μM): 10.8%/ | metabolic stability T = 60 min mouse [9, 14]: very low | remaining at 0.25 h, 1 μM ([9]; mouse, microsomes, pH 7.4): 90% | remaining at 0.5 h, 1 μM ([9]; mouse, microsomes, pH 7.4): 7% | remaining at 1 h, 1 μM ([9]; mouse, microsomes, pH 7.4): 9% | MIC Bacillus Subtillis [10]: 0.001 mM (≈ 0.00255 mg/mL)

CC(C)C[C@H](NC(=O)CNC(=O)[C@@H]1C[C@@H]2CCCC[C@@H]2N1C(=O)[C@@H]1Cc2ccccc2CN1C(=O)[C@H](CC(C)C)NC(=O)CNC(=O)[C@@H]1C[C@@H]2CCCC[C@@H]2N1C(=O)[C@@H]1Cc2ccccc2CN1C(=O)[C@H](CCCCN)NC(=O)CNC(=O)[C@@H]1C[C@@H]2CCCC[C@@H]2N1C(=O)[C@@H]1Cc2ccccc2CN1C(=O)[C@H](CC(C)C)NC(=O)CNC(=O)[C@@H]1C[C@@H]2CCCC[C@@H]2N1C(=O)[C@@H]1Cc2ccccc2CN1C(=O)[C@H](CCCCN)NC(=O)CNC(=O)[C@@H]1C[C@@H]2CCCC[C@@H]2N1C(=O)[C@@H]1Cc2ccccc2CN1C(=O)[C@H](CC(C)C)NC(=O)CNC(=O)[C@@H]1C[C@@H]2CCCC[C@@H]2N1C(=O)[C@@H]1Cc2ccccc2CN1C(=O)[C@H](CC(C)C)NC(=O)CNC(=O)[C@H](CCCCN)NC(=O)CN)C(=O)N[C@@H](CCCNC(=N)N)C(N)=O [WRFK-3, NH2-GKGL-Tic-Oic-GL-Tic-Oic-GK-Tic-Oic-GL-Tic-Oic-GK-Tic-Oic-GL-Tic-Oic-GLR-CONH2] (H-GKGL[Tic][Oic]GL[Tic][Oic]GK[Tic][Oic]GL[Tic][Oic]GK[Tic][Oic]GL[Tic][Oic]GLR-NH2)
Minimum Inhibitory Concentration Salmonella typhimurium ([1]; in vitro MIC, tested at 100, 30, 10, 3, 1, 0.3 and 0.1 μM in 1% DMSO): not active | p(MIC) Staphylococcus aureus ME/GM/TC resistant [3]: 4.00 | MIC Staphylococcus aureus ME/GM/TC resistant [3, 15]: 0.1 mM (≈ 0.344 mg/mL) | Minimum Inhibitory Concentration Staphylococcus aureus ME/GM/TC resistant [3]: 100 µM | Actual Bioactivity [3]: 4.000 | IC50 * D6 [11]: 5.2 µg/mL (≈ 1.51 µM) | % hemolysis 100/25 μM (first value) (red blood cells [12]): 100% | IC50 * W2 [13]: 7.2 µg/mL (≈ 2.09 µM)

CC(C)C[C@H](NC(=O)CNC(=O)[C@H](CCCCN)NC(=O)CN)C(=O)N1Cc2ccccc2CC1C(=O)N1C(C(=O)NCC(=O)N[C@@H](CCCCN)C(=O)N2Cc3ccccc3CC2C(=O)N2C(C(=O)NCC(=O)N[C@@H](Cc3ccccc3)C(=O)N3Cc4ccccc4CC3C(=O)N3C(C(=O)NCC(=O)N[C@@H](CCCCN)C(=O)N4Cc5ccccc5CC4C(=O)N4C(C(=O)NCC(=O)N[C@@H](Cc5ccccc5)C(=O)N5Cc6ccccc6CC5C(=O)N5C(C(=O)NCC(=O)N[C@@H](CCCCN)C(=O)N6Cc7ccccc7CC6C(=O)N6C(C(=O)NCC(=O)N[C@@H](CCCCN)C(=O)N[C@@H](CCCNC(=N)N)C(N)=O)CC7CCCCC76)CC6CCCCC65)CC5CCCCC54)CC4CCCCC43)CC3CCCCC32)CC2CCCCC21 (stereo partly drawn) [WRFK-1, NH2-GKGL-Tic-Oic-GK-Tic-Oic-GF-Tic-Oic-GK-Tic-Oic-GF-Tic-Oic-GK-Tic-Oic-GKR-CONH2] (H-GKGL[ξTic][ξOic]GK[ξTic][ξOic]GF[ξTic][ξOic]GK[ξTic][ξOic]GF[ξTic][ξOic]GK[ξTic][ξOic]GKR-NH2)
MIC Staphylococcus aureus ME/GM/TC resistant [3, 15]: 0.01 mM (≈ 0.0354 mg/mL) | Minimum Inhibitory Concentration Staphylococcus aureus ME/GM/TC resistant [3]: 10 µM | IC50 * D6 [11]: 7.3 µg/mL (≈ 2.06 µM) | IC50 * W2 [13]: 5.7 µg/mL (≈ 1.61 µM)

CC(C)C[C@H](NC(=O)CNC(=O)[C@H](CCCCN)NC(=O)CN)C(=O)N1Cc2ccccc2C[C@H]1C(=O)N1[C@H](C(=O)N[C@@H](Cc2ccccc2)C(=O)N[C@@H](CCCCN)C(=O)N2Cc3ccccc3C[C@H]2C(=O)N2[C@H](C(=O)N[C@@H](CCCCN)C(=O)N[C@@H](Cc3ccccc3)C(=O)N3Cc4ccccc4C[C@H]3C(=O)N3[C@H](C(=O)N[C@@H](Cc4ccccc4)C(=O)N[C@@H](CCCCN)C(=O)N4Cc5ccccc5C[C@H]4C(=O)N4[C@H](C(=O)N[C@@H](CCCCN)C(=O)N[C@@H](Cc5ccccc5)C(=O)N5Cc6ccccc6C[C@H]5C(=O)N5[C@H](C(=O)N[C@@H](Cc6ccccc6)C(=O)N[C@@H](CCCCN)C(=O)N6Cc7ccccc7C[C@H]6C(=O)N6[C@H](C(=O)N[C@@H](Cc7ccccc7)C(=O)N[C@@H](CCCCN)C(=O)N[C@@H](CCCNC(=N)N)C(N)=O)C[C@@H]7CCCC[C@@H]76)C[C@@H]6CCCC[C@@H]65)C[C@@H]5CCCC[C@@H]54)C[C@@H]4CCCC[C@@H]43)C[C@@H]3CCCC[C@@H]32)C[C@@H]2CCCC[C@@H]21 [WRFK-5, NH2-GKGL-Tic-Oic-FK-Tic-Oic-KF-Tic-Oic-FK-Tic-Oic-KF-Tic-Oic-FK-Tic-Oic-FKR-CONH2] (H-GKGL[Tic][Oic]FK[Tic][Oic]KF[Tic][Oic]FK[Tic][Oic]KF[Tic][Oic]FK[Tic][Oic]FKR-NH2)
p(MIC) Salmonella typhimurium [1]: 4.00 | MIC Salmonella typhimurium [1]: 0.1 mM (≈ 0.404 mg/mL) | Actual Bioactivity [2]: 0.000 | MIC Mycobacterium ranae [2]: 1000 mM (≈ 4040 mg/mL) | Minimum Inhibitory Concentration Mycobacterium ranae [2]: not active | p(MIC) Staphylococcus aureus ME/GM/TC resistant [3]: 4.52 | MIC Staphylococcus aureus ME/GM/TC resistant [3, 15]: 0.03 mM (≈ 0.121 mg/mL) | Minimum Inhibitory Concentration Staphylococcus aureus ME/GM/TC resistant [3]: 30 µM | Actual Bioactivity [3]: 4.520 | IC50 * D6 [11]: 3.9 µg/mL (≈ 0.965 µM) | % hemolysis 100/25 μM (first value) (red blood cells [12]): 100% | p(MIC) Bacillus Subtillis ([10]; -log(MIC)): 5.52 | MIC Bacillus Subtillis [10]: 0.003 mM (≈ 0.0121 mg/mL) | IC50 * W2 [13]: 4.2 µg/mL (≈ 1.04 µM)

CC(C)C[C@H](NC(=O)CNC(=O)[C@H](CCCCN)NC(=O)CN)C(=O)N1Cc2ccccc2C[C@H]1C(=O)N1[C@H](C(=O)NCC(=O)N[C@@H](CCCCN)C(=O)N2Cc3ccccc3C[C@H]2C(=O)N2[C@H](C(=O)NCC(=O)N[C@@H](CC(C)C)C(=O)N3Cc4ccccc4C[C@H]3C(=O)N3[C@H](C(=O)NCC(=O)N[C@@H](CCCCN)C(=O)N4Cc5ccccc5C[C@H]4C(=O)N4[C@H](C(=O)NCC(=O)N[C@@H](CC(C)C)C(=O)N5Cc6ccccc6C[C@H]5C(=O)N5[C@H](C(=O)NCC(=O)N[C@@H](CCCCN)C(=O)N6Cc7ccccc7C[C@H]6C(=O)N6[C@H](C(=O)NCC(=O)N[C@@H](CCCCN)C(=O)N[C@@H](CCCNC(=N)N)C(N)=O)C[C@@H]7CCCC[C@@H]76)C[C@@H]6CCCC[C@@H]65)C[C@@H]5CCCC[C@@H]54)C[C@@H]4CCCC[C@@H]43)C[C@@H]3CCCC[C@@H]32)C[C@@H]2CCCC[C@@H]21 [WRFK-4, NH2-GKGL-Tic-Oic-GK-Tic-Oic-GL-Tic-Oic-GK-Tic-Oic-GL-Tic-Oic-GK-Tic-Oic-GKR-CONH2] (H-GKGL[Tic][Oic]GK[Tic][Oic]GL[Tic][Oic]GK[Tic][Oic]GL[Tic][Oic]GK[Tic][Oic]GKR-NH2)
p(MIC) Salmonella typhimurium [1]: 4.00 | MIC Salmonella typhimurium [1]: 0.1 mM (≈ 0.347 mg/mL) | p(MIC) Staphylococcus aureus ME/GM/TC resistant [3]: 5.00 | Actual Bioactivity [3]: 5.000 | IC50 * D6 [11]: 7.8 µg/mL (≈ 2.25 µM) | % hemolysis / Hemolytic activity (red blood cells [8]; concentration not given): 100% | IC50 * W2 [13]: 6.5 µg/mL (≈ 1.87 µM)

Source: US20120197004A1, “NOVEL ANTI-MICROBIAL PEPTIDOMIMETIC COMPOUNDS AND METHODS TO CALCULATE ANTI-MICROBIAL ACTIVITY” (priority 2006, published 2012)
